These results are taken from US11780827B2, “Substituted 3-phenoxyazetidin-1-yl-pyrazines” (Boehringer Ingelheim International GmbH, priority 2020, dated 2023).

By EC50 is commonly meant the concentration at which the effect is half-maximal.

In data set [1] the target is T1, aldehyde oxidase (Homo sapiens, UniProt Q06278).
T1 construct: endogenous in cells; host or cells: cryopreserved primary human hepatocytes
T1 sequence (Q06278 1-1338): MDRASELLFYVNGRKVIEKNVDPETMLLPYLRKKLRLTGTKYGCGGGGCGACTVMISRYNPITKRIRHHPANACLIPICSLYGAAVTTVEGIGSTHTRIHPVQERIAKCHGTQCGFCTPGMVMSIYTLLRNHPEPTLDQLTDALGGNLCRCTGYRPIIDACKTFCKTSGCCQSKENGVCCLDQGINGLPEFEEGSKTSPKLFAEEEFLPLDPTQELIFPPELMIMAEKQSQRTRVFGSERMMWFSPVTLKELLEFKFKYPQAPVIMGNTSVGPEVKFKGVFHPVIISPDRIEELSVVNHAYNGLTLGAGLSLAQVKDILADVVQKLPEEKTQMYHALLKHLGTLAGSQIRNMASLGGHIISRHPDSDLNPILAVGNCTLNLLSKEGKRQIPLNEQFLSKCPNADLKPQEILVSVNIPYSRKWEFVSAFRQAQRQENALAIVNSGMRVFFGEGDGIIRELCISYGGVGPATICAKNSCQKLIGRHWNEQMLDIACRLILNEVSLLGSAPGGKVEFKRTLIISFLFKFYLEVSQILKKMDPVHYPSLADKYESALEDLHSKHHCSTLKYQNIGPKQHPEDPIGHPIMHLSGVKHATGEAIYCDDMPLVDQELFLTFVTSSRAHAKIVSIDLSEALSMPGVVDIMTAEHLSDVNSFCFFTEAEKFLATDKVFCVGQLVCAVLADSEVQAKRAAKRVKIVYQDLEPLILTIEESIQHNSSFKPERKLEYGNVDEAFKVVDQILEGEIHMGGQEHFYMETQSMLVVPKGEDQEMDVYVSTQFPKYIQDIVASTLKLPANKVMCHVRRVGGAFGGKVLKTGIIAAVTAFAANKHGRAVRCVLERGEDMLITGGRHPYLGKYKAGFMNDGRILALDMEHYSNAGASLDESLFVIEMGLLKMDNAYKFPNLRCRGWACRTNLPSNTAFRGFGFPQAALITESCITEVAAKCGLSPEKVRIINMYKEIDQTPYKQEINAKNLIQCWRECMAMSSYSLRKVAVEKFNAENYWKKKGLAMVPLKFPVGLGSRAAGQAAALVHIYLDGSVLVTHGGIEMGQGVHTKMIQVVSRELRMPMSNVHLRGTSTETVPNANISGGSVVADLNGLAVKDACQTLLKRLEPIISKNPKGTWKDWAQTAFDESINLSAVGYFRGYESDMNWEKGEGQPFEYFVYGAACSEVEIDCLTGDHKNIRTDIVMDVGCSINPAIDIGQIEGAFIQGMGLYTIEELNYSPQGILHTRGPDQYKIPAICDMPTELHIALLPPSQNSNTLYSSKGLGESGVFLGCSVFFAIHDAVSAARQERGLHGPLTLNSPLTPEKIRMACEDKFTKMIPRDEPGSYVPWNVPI
The data set can be described thus: In vitro metabolite profiling in primary human hepatocytes with or without hydralazine. The conditions noted are these: for % Parent of drug-related material: 1 μM test compound; for Contribution of AO to oxidative metabolism: sum of AO-formed metabolites. Type of data set: in vitro ADME. On the procedure:
(§1) In vitro metabolite profiling to evaluate the involvement of aldehyde oxidase in addition to CYP-mediated metabolic pathways is based on the semiquantitative analysis of the formation of oxygenated metabolites in primary human hepatocytes and the reduction in their formation in presence of the specific aldehyde oxidase inhibitor hydralazine. If respective hydralazine-inhibitable metabolites are also formed in human liver cytosol incubations in the absence of any cofactors, involvement of aldehyde oxidase in the metabolism of the respective compound is considered likely.
The involvement of aldehyde oxidase in metabolic transformation of the test compound is investigated using primary human hepatocytes in suspension in presence or absence of the specific aldehyde oxidase inhibitor hydralazine. After recovery from cryopreservation, human hepatocytes are incubated in Dulbecco's modified eagle medium supplemented with 3.5 μg glucagon/500 ml, 2.5 mg insulin/500 ml and 3.75 mg/500 ml hydrocortisone) containing 5% human serum.
Following a 30 min preincubation in a cell culture incubator (37° C., 10% CO2) with or without 50 μM hydralazine, test compound solution is spiked into the hepatocyte suspension to obtain a final cell density of 1.0*10^6 to 4.0*10^6 cells/mi (depending on the metabolic turnover rate of the compound observed with primary human hepatocytes), a final test compound concentration of 1 μM, and a final DMSO concentration of 0.05%.
The cells are incubated for six hours (incubator, horizontal shaker) and samples are removed from the incubation after 0, 0.5, 1, 2, 4 or 6 hours, depending on the metabolic turnover rate. Samples are quenched with acetonitrile and pelleted by centrifugation. The supernatant is transferred to a 96-deepwell plate, evaporated under nitrogen and resuspended prior to bioanalysis by liquid chromatography-high resolution mass spectrometry for identification of putative metabolites.

Data set [2] addresses T2, human GPR52 (Homo sapiens, UniProt Q9Y2T5).
T2 construct: expressed in transfected cells; host or cells: CHO-K1
The data set can be described thus: HTRF assay for direct cAMP measurement. Type of data set: cell-based. The conditions noted are these: CHO-K1 cells stably expressing recombinant human GPR52, mean EC50. On the procedure: Homogeneous Time-Resolved Fluorescence (HTRF) Assay for Direct cAMP Measurement.
HTRF cAMP assays were performed using commercially available assay kits according to the manufacturer's instructions (cAMP Dynamic 2 Assay Kit; #62AM4PEJ, Cisbio Bioassays, Bedford, Mass.). An aliquot of CHO-K1 cells stably expressing recombinant human GPR52 is thawed and resuspended in cell buffer (1×PBS (w/o Ca^2+/Mg^2+)) at a density of 4×10^5 cells per mL Test compounds were solubilized in DMSO to 10 mM stock solutions and serially diluted in DMSO using 6-fold dilutions to generate 8-point dose response curves. These serially diluted samples were then diluted 1:50 in compound dilution buffer (1×PBS (w/o Ca^2+/Mg^2+) containing 0.5 mM IBMX, 0.1% BSA) to achieve a 4× stock. The diluted compounds were transferred (5 μL per well) in duplicate to the 384-well assay plate (Optiplate #6007290, PerkinElmer, Waltham, Mass.). Both a positive (reference compound) and negative (non-stimulated vehicle) control are included in each assay run in column 23. The cell suspension was subsequently dispensed into the 384-well assay plates at 15 μL per well (6000 cells) such that the compound was diluted to 1×. […] After a one-hour incubation at room temperature, 10 μL of cAMP D2 reagent followed by 10 μL of cryptate reagent (provided in the Cisbio kit) was added to each well. Plates were then incubated at room temperature for one hour prior to reading. Time-resolved fluorescence measurements were collected on an EnVision® HTRF plate reader (PerkinElmer, Waltham, Mass.). Counts from the plate reader were fit to the cAMP standard curve included on each plate to determine the amount of cAMP in each test well. The % control was calculated based on the positive control set at […]. Dose-response curves were generated from the cAMP data and analyzed using a nonlinear least squares curve-fitting program to obtain EC50 values.
(Time-resolved FRET reads energy transfer from a long-lived donor to a nearby acceptor.)

Data set [3] addresses T1, aldehyde oxidase. Briefly: Metabolite formation in pooled human liver cytosol incubations without cofactors. Set-up: key: yes: Metabolite is formed in presence of human liver cytosol in the absence of cofactors as indication of aldehyde oxidase mediated metabolism; Metabolite is not detected in cytosol incubations. Format: in vitro ADME. As to conditions: human liver cytosol 5 mg/ml, 10 μM test compound, 60 min, metabolite of the same line. On the procedure: as §1
The involvement of aldehyde oxidase in the metabolic transformation of the test compound is confirmed at 37° C. with pooled human liver cytosol fractions. The incubations, conducted at a final incubation volume of 60 μl per time point, are composed of phosphate buffer (100 mM, pH 7.4), magnesium chloride (5 mM), and human liver cytosol (5 mg/ml). Following a short preincubation period at 37° C., the reactions are initiated by addition of the test compound, resulting in a final concentration of 10 μM. After 0 and 60 minutes, the incubations are terminated by transferring an aliquot into organic solvent, followed by centrifugation (10000 g, 5 min). The resulting supernatant is used for bioanalysis by liquid chromatography-high resolution mass spectrometry for identification of putative metabolites.

T2 sequence (Q9Y2T5 whole entry): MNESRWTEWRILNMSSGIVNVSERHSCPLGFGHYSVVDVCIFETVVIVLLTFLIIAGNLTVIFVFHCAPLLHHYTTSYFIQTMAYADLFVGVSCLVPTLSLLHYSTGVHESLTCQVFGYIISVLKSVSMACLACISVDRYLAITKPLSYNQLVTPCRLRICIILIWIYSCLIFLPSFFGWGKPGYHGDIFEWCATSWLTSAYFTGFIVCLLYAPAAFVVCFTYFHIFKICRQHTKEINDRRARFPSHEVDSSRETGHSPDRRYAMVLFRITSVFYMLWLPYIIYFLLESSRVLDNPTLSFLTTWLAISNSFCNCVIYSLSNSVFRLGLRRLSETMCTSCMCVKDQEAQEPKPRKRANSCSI

Regarding `O=C(Nc1ccnnc1)c1nccnc1N1CC(Oc2cc(F)c(F)c(F)c2)C1` [Example 4], in data set [1], the “% Parent of drug-related material” value is listed as 94% and the “Contribution of AO to oxidative metabolism” value (shortened to “Contribution of AO”) was 53%. The EC50 in data set [2] stood at 5 nM. For the same compound, in data set [3], the “Formation in human liver cytosol incubations [yes/no]” value (from here on “Formation … [yes/no]”) is given as “yes”.
As to `Cc1cc(NC(=O)c2nccnc2N2CC(Oc3cc(F)cc(Cl)c3)C2)cnn1` [Example 10], in data set [1], the “% Parent of drug-related material” value was determined as 91% and the “Contribution of AO” value is on record as 22%. The EC50 in data set [2] came out at 4 nM. Further, the “Formation … [yes/no]” value in data set [3] is “yes”.
In the case of `Cc1cc(NC(=O)c2nccnc2N2CC(Oc3cc(F)cc(C(F)F)c3)C2)cnn1` [Example 11], in data set [1], the “% Parent of drug-related material” value came out at 86% and the “Contribution of AO” value was 28%. Besides, the EC50 in data set [2] came to 6 nM. Moreover, the “Formation … [yes/no]” value in data set [3] is on record as “yes”.
For `Cc1cc(NC(=O)c2nccnc2N2CC(Oc3ccc(F)c(F)c3)C2)cnn1` [Example 12] the same measures were 93%, 56%, 3 nM and “yes”.
For `Cc1cc(NC(=O)c2nccnc2N2CC(Oc3cc(F)cc(F)c3)C2)cnn1` [Example 13] the same measures were 15%, 15%, 9 nM and “yes”.
Taken in the same sequence, the figures for `Cc1cc(NC(=O)c2nccnc2N2CC(Oc3cc(F)c(F)c(Cl)c3)C2)cnn1` [Example 14] were 94%, 22%, 4 nM and “yes”.
With `Cc1cc(NC(=O)c2nccnc2N2CC(Oc3cc(F)c(F)c(F)c3)C2)cnn1` [Example 15], in data set [1], the “% Parent of drug-related material” value is on record as 71% and the “Contribution of AO” value is given as 71%. Also, the EC50 in data set [2] is 5 nM. The “Formation … [yes/no]” value in data set [3] is “yes”.
`CCc1cc(NC(=O)c2nccnc2N2CC(Oc3ccc(F)c(F)c3)C2)cnn1` [Example 21]: in data set [1], the “% Parent of drug-related material” value is reported as 80% and the “Contribution of AO” value is reported as 67%. Moreover, the EC50 in data set [2] was 2 nM. The “Formation … [yes/no]” value in data set [3] was “yes”.
For `Cc1cc(NC(=O)c2nccnc2N2CC(Oc3ccc(F)c(F)c3)C2)ncn1` [Example 29] the same measures were 96%, 36%, 5 nM and “yes”.
